Experimental data published in US20260132123A1, “ABAD INHIBITOR COMPOUNDS” (UNIVERSITY COURT OF THE UNIVERSITY OF ST ANDREWS, priority 2021, published 2026).

Experiments:
[1] = target: T1, 17β-HSD10 (Homo sapiens, UniProt Q99714); assay: 17β-HSD10 (ABAD) enzyme inhibition assay, NADH oxidation read at 340 nm (primary screen and dose response); type: biochemical; details: for EC50 / Max. Effect (%) / Hill Slope / Max. Fit / Min. Fit: recombinant 17βHSD10 enzyme assay; for Hill Slope / Max. Fit / Min. Fit: curve fit
T1 construct: Histev (histidine tag with TEV site) (N, cleaved yes); made in house; host or cells: E. coli BL21-CodonPlus
T1 sequence (Q99714 1-261): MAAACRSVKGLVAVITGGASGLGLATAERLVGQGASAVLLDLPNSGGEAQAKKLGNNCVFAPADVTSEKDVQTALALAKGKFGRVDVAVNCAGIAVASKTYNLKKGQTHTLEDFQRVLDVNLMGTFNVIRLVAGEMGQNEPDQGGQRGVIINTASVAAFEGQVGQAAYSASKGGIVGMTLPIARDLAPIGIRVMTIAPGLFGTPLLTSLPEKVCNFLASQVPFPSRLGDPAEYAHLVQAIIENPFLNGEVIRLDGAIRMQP
In short: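 Screening used a 35 min room-temperature endpoint A340 read after compound (10 μM) and enzyme (2.5 nM, E. coli-expressed, His-tag removed) preincubated 15 min, then 100 μM NADH plus acetoacetyl-CoA added. Dose-response runs tracked absorbance kinetically 45 min; buffer pH 7.4 Tris with BSA, DTT.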

[2] = test system: mtsABAD HEK293 cells; assay: Lactate dehydrogenase (LDH) cytotoxicity assay; type: cell-based, human; details: 50 μM compound
Method: Cell cytotoxicity was assessed via the measurement of lactate dehydrogenase leakage into the culture medium using a commercially available kit from Pierce (Thermo Scientific cat no. 88953). This was carried out in accordance with the kit guidelines, with the activity of Lactate Dehydrogenase (LDH) being calculated from the change in absorbance at […] as NADH is reduced. HEK293 cells overexpressing mts17β-HSD10 were cultured in phenol-red free media (10% fetal bovine serum (FBS), 1 mM sodium pyruvate, 100 units penicillin, 0.1 mg/mL streptomycin and 2 mM L-glutamine) and seeded at a density of 10,000 cells per well (100 μL, 96 well plates). […] Treated cells were incubated at 37° C. and CO2 (5%) for 24 hours before the LDH assay was performed as per the manufacturer's instructions. Spontaneous control (water) and maximum control (lysis buffer) used in accordance with the kit guide. Absorbance was measured at 490 nm and 680 nm using a SpectraMaxM2e spectrophotometer. The measured LDH activity was used to calculate % cytotoxicity using the following equation: […]

[3] = test system: mtsABAD HEK293 cells; assay: Alamar Blue cell viability assay; type: cell-based, human; details: 50 μM compound
Method: Cell viability was assessed via fluorescence change using the commercially available Alamar Blue from ThermoFisher. HEK293 cells overexpressing mts17β-HSD10 were cultured in phenol-red free media (10% FBS, 1 mM sodium pyruvate, 100 units penicillin, 0.1 mg/mL streptomycin and 2 mM L-glutamine) and seeded at a density of 10,000 cells per well (100 μL, 96 well plates). […] Treated cells were then incubated at 37° C. and CO2 (5%) for 24 hours before the assay was performed as per the manufacturer's instructions. Fluorescence was measured at 530 nm excitation and 590 nm emission using a SpectraMaxM2e spectrophotometer.

EC50 [1]	Max. Effect (%) [1]	Hill Slope [1]	Max. Fit [1]	Min. Fit [1]	17β-HSD10 / ABAD activity in words (SAR discussion) [1]	Compound	LDH % Toxicity (50 μM Dose) [2]	Alamar Blue % Viability (50 μM Dose) [3]	LDH % Toxicity (50 μM Dose) ([2]; listed as ESC1002206-01)	Alamar Blue % Viability (50 μM Dose) ([3]; listed as ESC1002206-01)	ABAD plC50 ([1]; primary screening, resynthesized HTS hit compounds)
3.16 µM	84%	1.2	93	–	–	Cc1ccsc1C(=O)N1CCC[C@@H]1c1ccccc1-c1ccn[nH]1 [ESC1002091]	5.395%	84.920%	–	–	–
> 20 µM	16%	–	–	–	–	CC(C)CN(C(=O)c1ccccc1F)c1cccc(N(C)Cc2ccc(O)nc2)c1 [ESC1002212]	5.576%	94.278%	–	–	–
0.646 µM	97%	1.1	98	0	–	CC(C)CN(C(=O)c1ccccc1)c1cccc(N(C)Cc2cnc[nH]2)c1 [ESC1002169, N-[3-[1H-imidazol-5-ylmethyl(methyl)amino]phenyl]-N-isobutyl-benzamide]	4.554%	84.229%	–	–	–
0.603 µM	99%	0.91	101	−1	–	Cc1ccsc1C(=O)N1CCC[C@H]1c1ccccc1-c1cccc(C(F)(F)F)c1 [ESC1002320]	5.12%	83.37%	–	–	–
> 20 µM	13%	–	–	–	–	COc1ccc(-c2ccccc2[C@H]2CCCN2C(=O)c2ccc(C)cc2)cn1 (stereo in doubt) [ESC1002120, [2-[2-(6-methoxy-3-pyridyl)phenyl]pyrrolidin-1-yl]-(p-tolyl)methanone]	4.611%	81.743%	–	–	–
0.525 µM	99%	1.4	97	7	–	Cc1ccsc1C(=O)N1CCC[C@H]1c1ccccc1-c1cccc(C)c1C [ESC1002339]	4.39%	82.52%	–	–	–
1.15 µM	94%	1.1	97	0	–	Cc1ccsc1C(=O)N1CCC[C@@H]1c1ccccc1-c1cccnc1 [ESC1002090]	5.162%	102.627%	–	–	–
1.62 µM	91%	0.87	102	−6	–	Cc1ccsc1C(=O)N1CCC[C@H]1c1ccccc1-c1cnn(C2CCOCC2)c1 [ESC1002341]	5.13%	96.72%	–	–	–
> 20 µM	22%	–	–	–	–	CC(C)CN(C(=O)c1ccccc1F)c1cccc(N(C)Cc2cn3ccccc3n2)c1 [ESC1002214]	5.902%	82.439%	–	–	–
0.955 µM	99%	0.93	104	0	less potent	CC(C)CN(C(=O)C1CCCCC1)c1cccc(N(C)Cc2cnc[nH]2)c1 [ESC1002166, N-[3-[1H-imidazol-5-ylmethyl(methyl)amino]phenyl]-N-isobutyl-cyclohexanecarboxamide]	4.554%	82.237%	–	–	–
0.955 µM	96%	1.1	99	0	–	CN(Cc1c[nH]cn1)c1cccc(N(CC2CCC2)C(=O)c2ccccc2F)c1 [ESC1002265]	4.52%	80.52%	–	–	–
> 20 µM	40%	–	–	–	–	CC(C)CN(C(=O)c1ccccc1F)c1cccc(N(C)Cc2ccncc2)c1 [ESC1002211]	5.501%	82.553%	–	–	–
–	79%	0.93	107	0	–	CC(C)CN(C(=O)c1ccccc1F)c1cccc(N(C)Cc2ccn[nH]2)c1 [ESC1002206]	–	–	5.918%	95.609%	–
–	–	–	–	–	–	COc1ccc(-c2ccccc2[C@H]2CCCN2C(=O)c2sccc2C)cc1 (single isomer, unassigned) [ESC1002331]	5.88%	88.56%	–	–	–
–	–	–	–	–	–	CC(C)CN(C(=O)c1ccccc1F)c1cccc(N(C)Cc2cn[nH]c2)c1 [ESC1002205-02]	5.243%	89.638%	–	–	–
> 20 µM	20%	–	–	–	–	COc1cccc(-c2ccccc2[C@@H]2CCCN2C(=O)C(C)(C)C)c1 (racemic) [ESC1002604]	–	–	–	–	–
> 20 µM	18.4%	–	–	–	–	CCN(C(=O)C1CCOCC1)c1cccc(N(C)Cc2cnc[nH]2)c1 [S2−T6, N-ethyl-N-[3-[1H-imidazol-5-ylmethyl(methyl)amino]phenyl]tetrahydropyran-4-carboxamide]	–	–	–	–	–
> 20 µM	20%	–	–	–	–	CC(C)CN(C(=O)c1ccccc1F)c1cncc(N(C)Cc2c[nH]cn2)c1 [ESC1002802]	–	–	–	–	–
0.871 µM	93%	0.73	104	−10	–	Cc1ccc(C(=O)N(CC(C)C)c2cccc(N(C)Cc3c[nH]cn3)c2)c(C)c1 [ESC1002492, N-[3-[1H-imidazol-4-ylmethyl(methyl)amino]phenyl]-N-isobutyl-2,4-dimethyl-benzamide]	–	–	–	–	–
> 20 µM	47%	1.2	100	−4	–	CC(C)CN(C(=O)c1ccccc1F)c1cccc(N(C)Cc2cc[nH]n2)n1 [ESC1002796]	–	–	–	–	–
> 20 µM	−6%	–	–	–	–	COc1cccc(-c2ccccc2[C@H]2CCCN2Cc2ccccc2)c1 [ESC1002504]	–	–	–	–	–
0.417 µM	92%	1.2	92	0	–	CCOc1cccc(-c2ccccc2[C@@H]2CCCN2C(=O)c2sccc2Cl)c1 (racemic) [ESC1002664]	–	–	–	–	–
> 20 µM	−3%	–	–	–	–	CC(=O)CN(CC(C)=O)c1cccc(N(CC(C)C)C(=O)c2ccccc2F)c1 [ESC1002724]	–	–	–	–	–
5.5 µM	79%	0.98	101	−1	–	C#CCN(C)c1cccc(N(CC(C)C)C(=O)c2ccccc2F)c1 [ESC1002636]	–	–	–	–	–
0.55 µM	96%	1	97	−7	–	COc1ccccc1C(=O)N(CC(C)C)c1cccc(N(C)Cc2c[nH]cn2)c1 [ESC1002458]	–	–	–	–	–
> 20 µM	2%	–	–	–	–	COc1cccc(-c2ccccc2[C@H]2CCCN2C(=O)C2CCN(C)CC2)c1 [ESC1002436]	–	–	–	–	–
> 20 µM	7.1%	–	–	–	–	O=C(c1ncn[nH]1)N1CCC[C@H]1c1ccccc1 [S1−T3, 5-{[(2S)-2-phenylpyrrolidin-1-yl]carbonyl}-1H-1,2,4-triazole]	–	–	–	–	–
> 20 µM	4%	–	–	–	–	Cc1ccc(C(=O)N(CC(C)C)c2nccc(N(C)Cc3cnc[nH]3)n2)cc1 [ESC1002817]	–	–	–	–	–
> 20 µM	4.8%	–	–	–	–	CCN(C(=O)c1ccccc1F)c1cccc2c1ncc(=O)n2Cc1cnc[nH]1 [S2−T2, N-ethyl-2-fluoro-N-[1-(1H-imidazol-5-ylmethyl)-2-oxo-1,2 dihydroquinoxalin-5-yl]benzamide]	–	–	–	–	–

Compound	EC50 [1]	Max. Effect (%) [1]	Hill Slope [1]	Max. Fit [1]	Min. Fit [1]	17β-HSD10 / ABAD activity in words (SAR discussion) [1]	LDH % Toxicity (50 μM Dose) [2]	Alamar Blue % Viability (50 μM Dose) [3]	LDH % Toxicity (50 μM Dose) ([2]; listed as ESC1002206-01)	Alamar Blue % Viability (50 μM Dose) ([3]; listed as ESC1002206-01)	ABAD plC50 ([1]; primary screening, resynthesized HTS hit compounds)
CC(C)CN(C(=O)c1ccc(Cl)cc1F)c1cccc(N(C)Cc2cnc[nH]2)c1 [ESC1002042, 4-chloro-2-fluoro-N-[3-[1H-imidazol-5-ylmethyl(methyl)amino]phenyl]-N-isobutyl-benzamide]	0.316 µM	98%	0.8	101	−6	–	–	–	–	–	6.5
